Data as given in the kinase profiling compilation of Christmann-Franck et al. (2016).

How the values were obtained:
Assay in all cases: radiometric filter-binding kinase assay, Kinase HotSpot
Details in all cases: compound 0.5 µM; ATP 10 µM
[1] = system: PRKCQ (human), Q04759 [P330L]
[2] = system: MAP2K6 (human), P52564 [S207E/T211E]
[3] = system: MKNK1 (human), Q9BUB5 [T385D; 165-205 del]
[4] = system: FLT4 (human), P35916 [Q890H]
FLT4 (human), P35916 [Q890H], sequence (P35916 whole entry, looked up, stated change not applied): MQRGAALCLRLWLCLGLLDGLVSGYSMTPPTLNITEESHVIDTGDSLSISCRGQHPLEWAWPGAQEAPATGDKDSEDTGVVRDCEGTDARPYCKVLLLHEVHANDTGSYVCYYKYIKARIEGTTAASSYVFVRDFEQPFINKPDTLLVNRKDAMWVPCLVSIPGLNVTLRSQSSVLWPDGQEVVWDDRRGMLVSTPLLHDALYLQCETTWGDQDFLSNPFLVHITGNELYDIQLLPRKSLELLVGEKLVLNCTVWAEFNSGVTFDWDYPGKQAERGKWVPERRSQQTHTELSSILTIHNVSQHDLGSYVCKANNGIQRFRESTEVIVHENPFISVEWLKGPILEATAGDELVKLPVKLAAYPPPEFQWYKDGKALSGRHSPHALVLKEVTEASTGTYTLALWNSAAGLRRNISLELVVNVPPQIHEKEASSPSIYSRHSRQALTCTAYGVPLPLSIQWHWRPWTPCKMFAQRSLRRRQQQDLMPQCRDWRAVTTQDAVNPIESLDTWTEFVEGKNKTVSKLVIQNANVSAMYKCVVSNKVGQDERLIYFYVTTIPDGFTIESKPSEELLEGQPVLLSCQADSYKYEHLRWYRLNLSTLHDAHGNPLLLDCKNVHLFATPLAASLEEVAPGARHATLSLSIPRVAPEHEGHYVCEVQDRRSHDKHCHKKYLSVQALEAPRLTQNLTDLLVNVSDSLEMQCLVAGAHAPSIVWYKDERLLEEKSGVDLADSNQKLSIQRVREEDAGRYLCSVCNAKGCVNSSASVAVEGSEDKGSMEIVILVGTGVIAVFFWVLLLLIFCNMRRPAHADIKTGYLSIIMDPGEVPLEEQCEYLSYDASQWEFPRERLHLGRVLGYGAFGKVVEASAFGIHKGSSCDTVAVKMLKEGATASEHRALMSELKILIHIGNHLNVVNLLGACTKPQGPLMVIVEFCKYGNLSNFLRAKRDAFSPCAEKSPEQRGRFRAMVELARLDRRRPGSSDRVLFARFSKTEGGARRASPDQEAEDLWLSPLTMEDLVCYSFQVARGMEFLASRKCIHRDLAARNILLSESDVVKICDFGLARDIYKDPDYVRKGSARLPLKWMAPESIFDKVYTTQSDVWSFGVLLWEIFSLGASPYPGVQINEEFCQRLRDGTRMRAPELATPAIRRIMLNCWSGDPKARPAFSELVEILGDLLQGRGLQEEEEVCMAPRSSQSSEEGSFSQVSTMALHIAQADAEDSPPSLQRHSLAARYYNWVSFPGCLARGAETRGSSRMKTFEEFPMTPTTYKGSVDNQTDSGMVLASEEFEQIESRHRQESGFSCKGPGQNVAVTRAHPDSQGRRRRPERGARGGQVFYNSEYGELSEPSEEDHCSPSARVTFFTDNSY

MKNK1 (human), Q9BUB5 [T385D; 165-205 del], sequence (Q9BUB5 whole entry, looked up, stated change not applied): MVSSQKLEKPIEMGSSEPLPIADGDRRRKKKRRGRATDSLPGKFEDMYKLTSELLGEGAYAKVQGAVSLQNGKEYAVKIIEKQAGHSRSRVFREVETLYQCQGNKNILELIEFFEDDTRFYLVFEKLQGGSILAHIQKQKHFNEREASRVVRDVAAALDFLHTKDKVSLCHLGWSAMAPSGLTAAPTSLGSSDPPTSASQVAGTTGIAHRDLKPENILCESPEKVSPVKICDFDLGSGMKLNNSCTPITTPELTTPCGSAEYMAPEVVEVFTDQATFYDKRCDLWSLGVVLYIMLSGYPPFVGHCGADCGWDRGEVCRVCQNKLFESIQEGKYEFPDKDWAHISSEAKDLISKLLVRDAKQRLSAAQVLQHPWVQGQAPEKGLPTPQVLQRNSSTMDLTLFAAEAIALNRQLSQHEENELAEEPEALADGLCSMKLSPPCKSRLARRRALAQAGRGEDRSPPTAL
MAP2K6 (human), P52564 [S207E/T211E], sequence (P52564 whole entry S207E/T211E, looked up): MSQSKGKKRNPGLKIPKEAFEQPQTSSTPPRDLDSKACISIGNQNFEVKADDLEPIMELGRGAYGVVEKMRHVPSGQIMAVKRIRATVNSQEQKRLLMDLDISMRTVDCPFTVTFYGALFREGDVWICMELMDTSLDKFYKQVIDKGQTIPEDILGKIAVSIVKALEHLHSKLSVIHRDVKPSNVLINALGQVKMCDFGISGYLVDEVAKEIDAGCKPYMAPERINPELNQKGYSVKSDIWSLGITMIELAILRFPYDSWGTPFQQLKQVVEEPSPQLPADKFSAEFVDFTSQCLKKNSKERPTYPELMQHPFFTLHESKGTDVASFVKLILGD
PRKCQ (human), Q04759 [P330L], sequence (Q04759 whole entry P330L, looked up): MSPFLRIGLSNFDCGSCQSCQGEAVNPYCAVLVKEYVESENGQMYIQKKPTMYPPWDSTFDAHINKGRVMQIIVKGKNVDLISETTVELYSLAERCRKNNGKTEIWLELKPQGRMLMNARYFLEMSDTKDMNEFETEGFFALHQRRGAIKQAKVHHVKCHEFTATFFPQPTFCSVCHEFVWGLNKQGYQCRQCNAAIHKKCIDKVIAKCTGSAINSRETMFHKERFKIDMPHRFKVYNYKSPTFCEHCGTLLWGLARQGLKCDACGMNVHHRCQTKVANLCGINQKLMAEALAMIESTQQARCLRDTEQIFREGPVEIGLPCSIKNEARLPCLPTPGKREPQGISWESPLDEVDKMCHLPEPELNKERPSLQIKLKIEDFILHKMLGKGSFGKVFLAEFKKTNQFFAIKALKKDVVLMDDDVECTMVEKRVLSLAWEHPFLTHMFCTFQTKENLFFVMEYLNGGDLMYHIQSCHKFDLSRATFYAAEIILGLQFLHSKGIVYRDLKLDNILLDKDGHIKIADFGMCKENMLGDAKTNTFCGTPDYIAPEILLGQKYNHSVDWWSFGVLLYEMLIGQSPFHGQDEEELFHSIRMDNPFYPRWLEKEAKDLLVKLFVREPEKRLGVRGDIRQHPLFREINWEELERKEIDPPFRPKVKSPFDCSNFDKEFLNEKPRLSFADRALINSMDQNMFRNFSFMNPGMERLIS

Row | Compound | residual activity [1] [%] | residual activity [2] [%] | residual activity [3] [%] | residual activity [4] [%]
1 | N#C/C(=C(/N)Sc1ccc(N)cc1)c1ccccc1C(F)(F)F | 104 | 97.5 | 103 | 99.8
2 | O=C1NC(=O)c2cc(Nc3ccc(F)cc3)c(Nc3ccc(F)cc3)cc21 | 98.7 | 110 | 103 | 102
3 | CS(=O)c1ccc(-c2nc(-c3ccc(F)cc3)c(-c3ccncc3)[nH]2)cc1 (stereo not drawn) | 111 | 102 | 98.5 | 119
4 | O=C1NC(=O)c2c1c1c3ccccc3[nH]c1c1[nH]c3cc(Br)ccc3c21 | 93.1 | 94.2 | 81.5 | 28
5 | COc1cc2ncc(-c3ccccc3)nc2cc1OC | 101 | 94.9 | 104 | 90.4
6 | COc1cc2c(Nc3ccc(Br)cc3F)ncnc2cc1OCC1CCN(C)CC1 | 100 | 96.2 | 49.3 | 16.1
7 | Nc1ncnc2c1cnn2-c1ccccc1 | 102 | 90.8 | 81.4 | 108
8 | Clc1ccc(Nc2nnc(Cc3ccncc3)c3ccccc23)cc1 | 73.5 | 95.3 | 98.5 | 62.8
9 | Cc1ccc(S(=O)(=O)/C=C/C#N)cc1 | 100 | 98.4 | 99.4 | 96.5
10 | O=c1c(-c2ccc(F)cc2)c(-c2ccncc2)[nH]n1-c1ccc(Cl)cc1 | 119 | 79.4 | 93.9 | 91.5
11 | N/C(=N\N=C/c1ccc(-c2cccc([N+](=O)[O-])c2)o1)N[N+](=O)[O-] | 94.6 | 111 | 97.4 | 86.3
12 | Cc1ccc(Nc2nccc(N(C)c3ccc4c(C)n(C)nc4c3)n2)cc1S(N)(=O)=O | 93.1 | 98.3 | 102 | 
13 | CC(=O)O/N=C1\C(=C2\C(=O)Nc3cc(Br)ccc32)Nc2ccccc21 | 72 | 87.2 | 95.2 | 93.7
14 | CC#CC(=O)Nc1cc2c(Nc3ccc(F)c(Cl)c3)ncnc2cn1 | 89.3 | 100 | 89.5 | 92.8
15 | CC(C)N(CCC(=O)c1ccc2ccccc2c1)Cc1ccccc1 | 122 | 93.2 | 105 | 94
16 | Oc1cccc(-c2nc(N3CCOCC3)c3oc4ncccc4c3n2)c1 | 105 | 86.6 | 102 | 104
17 | COc1cccc(-c2cc(=O)c3ccccc3o2)c1N | 103 | 92.4 | 95.4 | 90.8
18 | CCC(=O)Nc1ccc2ncnc(Nc3cccc(Br)c3)c2c1 | 96.3 | 94.5 | 82.8 | 91.5
19 | COc1cc2ncnc(Nc3ccc(O)c(Br)c3)c2cc1OC | 92.8 | 84.9 | 32.7 | 48.5
20 | Nc1nc(Nc2ccc(S(N)(=O)=O)cc2)nn1C(=S)Nc1c(F)cccc1F | 15.1 | 62.7 | 23.4 | 3.75
21 | CCOc1cc2ncnc(Nc3cccc(Br)c3)c2cc1OCC | 89.2 | 92.6 | 46 | 88.1

Row | Compound | residual activity [1] [%] | residual activity [2] [%] | residual activity [3] [%] | residual activity [4] [%]
22 | N#Cc1c(NC(=O)c2cccc3ccccc23)sc2c1CCCC2 |  | 98.1 | 106 | 89.8
23 | Nc1ncnc2c1c(-c1ccc(Oc3ccccc3)cc1)cn2C1CCCC1 | 131 | 99.3 | 109 | 50.8
24 | Cc1nc2cc3nc(-c4cccs4)cnc3cc2n1C | 100 | 104 | 92.7 | 86.2
25 | Cn1cc(/C=C2\C(=O)Nc3ccc(S(N)(=O)=O)cc32)c2ccccc21 | 103 | 116 | 74.1 | 65.1
26 | O=C(CCCc1ccc(-c2ccccc2F)cc1)Nc1ccc(O)cc1 | 107 | 97.5 | 111 | 99.3
27 | Cc1[nH]c(/C=C2\C(=O)Nc3ccc(S(=O)(=O)N(C)c4cccc(Cl)c4)cc32)c(C)c1C(=O)N1CCN(C)CC1 | 107 | 91.9 | 105 | 55.1
28 | Cn1sc(=O)n(Cc2ccccc2)c1=O | 100 | 94.9 | 98.6 | 86.8
29 | O=c1cc(N2CCOCC2)oc2c(-c3ccccc3)cccc12 | 112 | 97.5 | 103 | 96.4
30 | CCCCc1c(-c2ccc(O)cc2)[nH]c2nccnc12 | 118 | 100 | 94.5 | 77.4
31 | O=C1Nc2ccccc2/C1=C1/Nc2ccccc2/C1=N\OCCC(O)CO (stereo not drawn) | 92.9 | 79.7 | 95.3 | 22.3
32 | Nc1nnc2[nH]c3ccccc3nc1-2 | 89.7 | 100 | 97.4 | 117
33 | COc1ccc(OC)c2c(=S)c3ccccc3[nH]c12 | 98.9 | 89.9 | 115 | 98.1
34 | COc1cc2ncnc(N3CCN(C(=O)Nc4ccc(Oc5ccccc5)cc4)CC3)c2cc1OC | 97.3 | 96 | 94.9 | 101
35 | c1ccc(-c2cnc(Nc3ccc(OCCN4CCCC4)cc3)s2)cc1 | 91.2 | 93.6 | 64.7 | 64.4
36 | CC(C)c1nn(-c2c(Cl)cccc2Cl)c2nc(Cc3ccc(OCCO)cc3)nc(O)c12 | 97.3 | 92.7 | 110 | 103
37 | O=C1NC(=O)/C(=C/c2ccc3c(c2)OC(F)(F)O3)S1 | 101 | 92.3 | 93.1 | 107
38 | Nc1nc(Nc2ccc(S(N)(=O)=O)cc2)nn1C(=O)c1c(F)cccc1F | 114 | 90.5 | 90.9 | 38
39 | CCN(CC)CCNC(=O)c1c(C)[nH]c(/C=C2\C(=O)Nc3ccc(F)cc32)c1C | 63.5 | 75.9 | 99.3 | 
40 | O=S(=O)(c1cccc2cnccc12)N1CCCNCC1 | 89.9 | 95.6 | 91.8 | 
41 | C#Cc1cccc(Nc2ncnc3cc(OCCOC)c(OCCOC)cc23)c1 | 77.2 | 94.2 |  | 
